Some test systems named below: UO-31 renal; MDA-MB-435; DU-145 prostate; SN12C renal; HCT-116 colon; HOP-92 NSCLC; SK-OV-3 ovarian; T-47D breast; MOLT-4 leukemia; MDA-N.
Holding throughout (test): inhibition of tumour cell growth, NCI panel, 48 h

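Results reflect a 48-hour exposure of cells in 96-well plates to compound at five concentrations. GI50 marks 50% less growth. TGI: total growth inhibition.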

As to `CN(C)CCNC(=O)c1cccc2nc3c4ccccc4c4ccccc4c3nc12`, the TGI stood at 22.9 µM with UO-31 renal; 3.42 µM in the experiment with MDA-MB-435; 3.2 µM in the experiment with DU-145 prostate; 3.64 µM with SN12C renal; 3.21 µM in the experiment with HCT-116 colon; 39.4 µM with HOP-92 NSCLC. For the same compound, the TGI in the experiment on SK-OV-3 ovarian was 13.4 µM; in the experiment on T-47D breast it was 34.1 µM; in the experiment on MOLT-4 leukemia, 4.96 µM; in the experiment on MDA-N, 3.06 µM.
Turning to `N=C(N)c1ccc(-c2ccc(-c3ccc(Cl)cn3)s2)cc1`, the GI50 was 1.68 µM in the experiment on UO-31 renal; 1.65 µM in the experiment on MDA-MB-435; 1.78 µM in the experiment on DU-145 prostate; 1.27 µM in the experiment with HOP-92 NSCLC; 1.83 µM in the experiment on SK-OV-3 ovarian. In addition, the TGI with UO-31 renal came out at 3.07 µM; in the experiment on MDA-MB-435 it was 3.02 µM; in the experiment with DU-145 prostate, 3.34 µM; in the experiment on HOP-92 NSCLC, 2.67 µM; in the experiment on SK-OV-3 ovarian it was 3.49 µM.
For the compound `O=C(O)c1ccccn1`, the TGI in the experiment with UO-31 renal, with MDA-MB-435, with SN12C renal, in the experiment on HCT-116 colon, with HOP-92 NSCLC and with T-47D breast was more than 100 µM in each case. Moreover, the TGI in the experiment on MOLT-4 leukemia and in the experiment with MDA-N was more than 100 µM each time.
Turning to `O=C(CC1(O)C(=O)Nc2ccc(Br)cc21)c1ccc(C(=O)NCC2CCC3(CC2)OOC2(CCCCC2)OO3)cc1` (stereo unspecified), the GI50 in the experiment on DU-145 prostate is 8.77 µM; in the experiment with SN12C renal, 10.4 µM; in the experiment on HCT-116 colon it was 3.09 µM; with HOP-92 NSCLC it was 1.9 µM; in the experiment on SK-OV-3 ovarian, 10.4 µM; in the experiment with T-47D breast, 2.69 µM. In the experiment on MOLT-4 leukemia, the GI50 is 2.14 µM. For the same compound, the TGI in the experiment on DU-145 prostate came to 39.6 µM; with SN12C renal it was 34.9 µM; in the experiment with HCT-116 colon it was 30 µM; with HOP-92 NSCLC it was 4.46 µM; with SK-OV-3 ovarian it was 31.3 µM; in the experiment with T-47D breast it was 24.4 µM. The TGI with MOLT-4 leukemia turned out to be 5.87 µM.
As for `CN(C)c1ccc(C2CC(=O)C(C#N)=C(c3ccccc3)NN2C)cc1` (stereo unspecified), the TGI in the experiment on SN12C renal, with HCT-116 colon, in the experiment with HOP-92 NSCLC, in the experiment with SK-OV-3 ovarian and with MOLT-4 leukemia was more than 100 µM each time.
As to `CC(C)(C)C1CCC2(CC1)CCN(CCCN1CCOCC1)CC2`, the TGI with UO-31 renal is more than 100 µM; with MDA-MB-435, more than 100 µM; in the experiment with DU-145 prostate it was more than 100 µM; in the experiment with SN12C renal, more than 100 µM; in the experiment with HCT-116 colon, more than 59.7 µM; in the experiment on HOP-92 NSCLC, more than 63.9 µM. Besides, the TGI in the experiment with SK-OV-3 ovarian was more than 100 µM; in the experiment with T-47D breast it was more than 100 µM; in the experiment on MOLT-4 leukemia it was more than 65.4 µM; in the experiment with MDA-N, 89.9 µM.
In the case of `CC(C)CNc1nc(N)[nH]c(=O)c1NC=O`, the TGI with UO-31 renal, with MDA-MB-435, in the experiment with DU-145 prostate, with SN12C renal, in the experiment on HCT-116 colon and in the experiment with HOP-92 NSCLC was more than 100 µM each time. Besides, the TGI in the experiment with SK-OV-3 ovarian, in the experiment on T-47D breast, in the experiment with MOLT-4 leukemia and in the experiment on MDA-N was more than 100 µM throughout.
As for `COc1cnc2c(c1)C(=O)c1c-2n(CCCN2CCNCC2)c(=O)c2cc(Cl)ccc12`, the GI50 is 1.03 µM in the experiment with UO-31 renal; 1.25 µM in the experiment on MDA-MB-435; 0.242 µM with DU-145 prostate; 1.12 µM in the experiment on HOP-92 NSCLC; 1.16 µM with SK-OV-3 ovarian; 8.98 µM in the experiment with T-47D breast. Also, the TGI with UO-31 renal is 2.41 µM; with MDA-MB-435, 2.59 µM; in the experiment on DU-145 prostate, 1.2 µM; with HOP-92 NSCLC, 13.7 µM; with SK-OV-3 ovarian, 2.51 µM; in the experiment on T-47D breast, 50.3 µM.
In the case of `CN(C)[C@@H]1C(=O)C(C(=O)NCNCCCC(=O)O)=C(O)[C@@]2(O)C(=O)C3=C(O)c4c(O)cccc4[C@@](C)(O)[C@H]3C[C@@H]12`, the TGI in the experiment with UO-31 renal, in the experiment on SN12C renal, with HCT-116 colon, in the experiment on HOP-92 NSCLC, in the experiment on SK-OV-3 ovarian and with MOLT-4 leukemia was more than 100 µM throughout.
Take `COc1cc2ccc1-c1cc(ccc1O)CC1c3cc4c(cc3CCN1C)Oc1c(OC)cc3c(c1O4)C(C2)N(C)CC3` (stereo unspecified): the TGI with UO-31 renal was 3.27 µM; in the experiment with SN12C renal, 3.96 µM; in the experiment on HCT-116 colon, 2.89 µM; in the experiment with HOP-92 NSCLC it was 27 µM; with MOLT-4 leukemia, 4.22 µM.
As for `Oc1cc(O)cc(/C=C/c2ccc(O)c(O)c2)c1`, the TGI in the experiment with UO-31 renal was 39.3 µM; with SN12C renal, 40.8 µM; in the experiment with HCT-116 colon, 20.9 µM; with HOP-92 NSCLC, 50.3 µM; in the experiment with SK-OV-3 ovarian it was 47.7 µM; in the experiment on MOLT-4 leukemia it was more than 46.5 µM.
`NCS(=O)(=O)O`: the TGI in the experiment on UO-31 renal, with MDA-MB-435, in the experiment on DU-145 prostate, in the experiment on SN12C renal, in the experiment on HCT-116 colon and with HOP-92 NSCLC was more than 100 µM each time. For the same compound, the TGI in the experiment with SK-OV-3 ovarian, in the experiment with T-47D breast, in the experiment on MOLT-4 leukemia and with MDA-N was more than 100 µM each time.

For the origin of these results see PubChem BioAssay (NCI).
